In patent publication US9999622B2, “Pyrazolothiazole compound and medicine comprising same” (NIPPON SHINYAKU CO., LTD., priority 2014, dated 2018):

Experiments:
Type in all cases: biochemical
JAK1 = target: T1, JAK1 (Homo sapiens, UniProt P23458); assay: JAK tyrosine kinase inhibitory activity in the presence of 1 mM ATP (ELISA), JAK1
T1 construct: purchased Carna Biosciences, Inc
Procedure: (§1) 1. Preparation of Test Compound
(§2) The test compound was dissolved in dimethyl sulfoxide (DMSO) to 10 mM and further diluted with DMSO to the concentrations of 1000, 100, 10, 1, 0.1 and 0.01 μM, respectively. For JAK1, these solutions of the test compound at the six concentrations 10 mM, 1000 μM, 100 μM, 10 μM, 1 μM and 0.1 μM were used. For JAK2 and JAK3, these solutions of the test compound at the six concentrations 1000 μM, 100 μM, 10 μM, 1 μM, 0.1 μM and 0.01 μM were used. The test compound solutions were diluted further to 20-fold with an assay buffer to obtain a sample solution. 15 mM Tris-HCl (pH7.5), 0.01 (v/v) % Tween-20 and 1 mM dithiothreitol were used as an assay buffer. DMSO was diluted to 20-fold with the assay buffer and was used as a negative control.
(§3) 2. JAK Tyrosine Kinase Inhibitory Activity in the Presence of 1 mM Atp
(§4) The activity was determined by ELISA method. Each of the sample solutions was added to a streptavidine coated 96-well plate (DELFIA Strip Plate 8×12 well, PerkinElmer) at 10 μL/well (n=2). […] Finally, JAK tyrosine kinase (Carna Biosciences, Inc.), which was previously diluted with the assay buffer to 7.5 nM for JAK1 and 0.75 nM for JAK2 and JAK3, was added to the plate at 20 μL/well, and the plate was incubated at 30° C. for 1 h. The plate was washed four times with buffer (50 mM Tris-HCl (pH 7.5), 150 mM NaCl, 0.02 (v/v) % Tween-20). A blocking buffer (0.1% Bovine Serum Albumin, 50 mM Tris-HCl (pH 7.5), 150 mM NaCl, 0.02 (v/v) % Tween-20) was added to the plate at 150 μL/well and the plate was blocked at 30° C. for 1 h. The blocking buffer was removed, and a horse radish peroxidase-labeled anti-phosphorylated tyrosine antibody (BD Biosciences, Inc.) (diluted to 10000-fold with the blocking buffer) was added to the plate at 100 μL/well, and the plate was incubated at 30° C. for 30 min. The plate was washed with the washing buffer four times, and 3,3′,5,5′-tetramethylbenizidine solution (Nacalai Tesque) was added to the plate at 100 μL/well to develop the color for 10 minutes. To the plate was added 0.1 M sulfuric acid at 100 μL/well to stop the reaction. The absorbance at 450 nm was measured using a microplate reader (BIO-RAD).
(§5) 3. Analysis of the Results

JAK2 = target: T2, JAK2 (Homo sapiens, UniProt O60674); assay: JAK tyrosine kinase inhibitory activity in the presence of 1 mM ATP (ELISA), JAK2
T2 construct: purchased Carna Biosciences, Inc
T2 sequence (O60674 whole entry): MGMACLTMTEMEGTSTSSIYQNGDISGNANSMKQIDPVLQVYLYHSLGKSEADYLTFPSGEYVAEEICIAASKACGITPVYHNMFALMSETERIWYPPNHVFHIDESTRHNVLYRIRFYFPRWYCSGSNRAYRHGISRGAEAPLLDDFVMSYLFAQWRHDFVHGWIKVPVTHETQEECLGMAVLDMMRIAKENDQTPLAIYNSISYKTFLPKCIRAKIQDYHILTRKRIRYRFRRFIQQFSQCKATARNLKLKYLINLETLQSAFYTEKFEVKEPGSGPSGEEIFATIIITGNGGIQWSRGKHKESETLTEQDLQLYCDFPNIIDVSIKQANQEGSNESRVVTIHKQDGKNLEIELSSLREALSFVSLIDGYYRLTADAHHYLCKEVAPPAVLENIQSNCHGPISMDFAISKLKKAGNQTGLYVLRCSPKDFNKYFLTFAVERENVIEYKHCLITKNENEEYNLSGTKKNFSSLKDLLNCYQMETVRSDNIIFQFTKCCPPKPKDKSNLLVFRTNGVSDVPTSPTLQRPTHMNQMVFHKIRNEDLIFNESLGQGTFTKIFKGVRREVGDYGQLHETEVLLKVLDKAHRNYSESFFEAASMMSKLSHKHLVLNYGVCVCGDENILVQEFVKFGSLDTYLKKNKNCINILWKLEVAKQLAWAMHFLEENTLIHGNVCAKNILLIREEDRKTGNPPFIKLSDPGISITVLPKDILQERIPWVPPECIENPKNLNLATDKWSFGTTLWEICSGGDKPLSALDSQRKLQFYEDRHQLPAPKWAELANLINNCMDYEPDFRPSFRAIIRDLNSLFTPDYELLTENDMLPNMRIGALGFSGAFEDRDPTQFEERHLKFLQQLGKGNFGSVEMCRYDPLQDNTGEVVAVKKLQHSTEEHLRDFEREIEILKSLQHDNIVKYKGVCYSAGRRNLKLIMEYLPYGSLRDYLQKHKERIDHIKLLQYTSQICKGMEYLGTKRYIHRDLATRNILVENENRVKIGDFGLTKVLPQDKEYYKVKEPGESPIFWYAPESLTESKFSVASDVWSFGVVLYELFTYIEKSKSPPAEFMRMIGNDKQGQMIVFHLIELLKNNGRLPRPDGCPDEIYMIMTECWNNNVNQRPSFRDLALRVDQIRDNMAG
Procedure: as §1, §2, §3, §4, §5

JAK3 = target: T3, JAK3 (Homo sapiens, UniProt P52333); assay: JAK tyrosine kinase inhibitory activity in the presence of 1 mM ATP (ELISA), JAK3
T3 construct: purchased Carna Biosciences, Inc
T3 sequence (P52333 1-1124): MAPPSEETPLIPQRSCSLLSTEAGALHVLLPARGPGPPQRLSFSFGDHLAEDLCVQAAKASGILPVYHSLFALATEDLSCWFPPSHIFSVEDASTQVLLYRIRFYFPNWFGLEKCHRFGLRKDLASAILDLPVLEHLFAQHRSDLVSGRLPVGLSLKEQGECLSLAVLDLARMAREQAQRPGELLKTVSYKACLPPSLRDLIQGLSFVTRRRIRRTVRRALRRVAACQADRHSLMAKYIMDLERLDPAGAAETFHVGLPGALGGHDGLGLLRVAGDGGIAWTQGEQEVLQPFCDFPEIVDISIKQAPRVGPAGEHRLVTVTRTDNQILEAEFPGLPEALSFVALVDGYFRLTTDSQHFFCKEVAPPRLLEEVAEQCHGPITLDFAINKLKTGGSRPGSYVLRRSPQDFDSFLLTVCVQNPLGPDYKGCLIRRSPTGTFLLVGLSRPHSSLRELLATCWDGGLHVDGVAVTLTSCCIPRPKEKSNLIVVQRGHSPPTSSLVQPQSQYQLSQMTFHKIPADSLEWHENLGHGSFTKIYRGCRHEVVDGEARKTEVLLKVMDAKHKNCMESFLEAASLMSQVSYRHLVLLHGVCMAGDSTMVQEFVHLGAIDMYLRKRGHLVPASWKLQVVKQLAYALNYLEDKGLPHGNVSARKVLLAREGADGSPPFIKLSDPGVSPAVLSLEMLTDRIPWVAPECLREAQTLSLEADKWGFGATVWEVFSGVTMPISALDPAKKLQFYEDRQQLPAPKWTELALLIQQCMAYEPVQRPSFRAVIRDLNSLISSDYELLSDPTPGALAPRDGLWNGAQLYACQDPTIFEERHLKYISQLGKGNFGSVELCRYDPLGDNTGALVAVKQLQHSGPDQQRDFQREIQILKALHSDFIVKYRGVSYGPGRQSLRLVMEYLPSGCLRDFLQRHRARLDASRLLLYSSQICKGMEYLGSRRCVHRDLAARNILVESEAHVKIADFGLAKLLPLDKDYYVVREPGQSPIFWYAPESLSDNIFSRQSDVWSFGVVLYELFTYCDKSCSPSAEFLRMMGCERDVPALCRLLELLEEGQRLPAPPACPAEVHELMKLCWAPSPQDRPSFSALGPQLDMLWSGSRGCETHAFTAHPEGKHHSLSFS
Procedure: as §1, §2, §3, §4, §5

T1 sequence (P23458 whole entry): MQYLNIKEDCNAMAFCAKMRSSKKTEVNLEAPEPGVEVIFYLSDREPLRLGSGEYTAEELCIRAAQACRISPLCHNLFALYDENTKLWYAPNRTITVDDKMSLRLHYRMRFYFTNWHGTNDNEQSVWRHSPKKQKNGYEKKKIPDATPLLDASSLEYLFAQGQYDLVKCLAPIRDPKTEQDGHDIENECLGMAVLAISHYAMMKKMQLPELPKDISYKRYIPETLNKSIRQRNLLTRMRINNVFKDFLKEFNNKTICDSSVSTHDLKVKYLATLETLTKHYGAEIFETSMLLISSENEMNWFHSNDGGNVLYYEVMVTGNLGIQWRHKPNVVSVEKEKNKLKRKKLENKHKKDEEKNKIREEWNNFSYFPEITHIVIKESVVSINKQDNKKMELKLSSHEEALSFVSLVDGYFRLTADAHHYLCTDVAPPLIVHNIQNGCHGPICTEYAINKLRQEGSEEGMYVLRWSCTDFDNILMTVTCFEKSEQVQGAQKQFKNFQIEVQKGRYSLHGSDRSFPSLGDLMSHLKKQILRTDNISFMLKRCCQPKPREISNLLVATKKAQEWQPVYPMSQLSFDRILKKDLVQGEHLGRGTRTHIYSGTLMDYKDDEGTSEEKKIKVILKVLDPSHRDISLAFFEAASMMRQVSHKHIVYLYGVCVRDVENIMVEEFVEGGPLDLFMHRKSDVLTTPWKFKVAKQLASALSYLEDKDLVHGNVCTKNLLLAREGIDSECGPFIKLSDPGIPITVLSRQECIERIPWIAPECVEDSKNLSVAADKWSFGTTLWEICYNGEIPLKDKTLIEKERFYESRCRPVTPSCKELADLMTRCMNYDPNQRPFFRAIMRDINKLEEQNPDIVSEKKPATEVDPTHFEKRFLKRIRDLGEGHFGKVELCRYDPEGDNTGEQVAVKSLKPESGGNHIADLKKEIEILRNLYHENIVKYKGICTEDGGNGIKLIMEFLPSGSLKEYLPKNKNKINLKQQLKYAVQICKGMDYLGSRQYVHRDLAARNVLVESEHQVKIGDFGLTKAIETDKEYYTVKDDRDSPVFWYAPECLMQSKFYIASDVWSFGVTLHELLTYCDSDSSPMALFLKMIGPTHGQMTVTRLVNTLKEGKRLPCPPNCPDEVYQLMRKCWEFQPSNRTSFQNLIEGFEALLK

| IC50 (JAK1) | IC50 (JAK2) | IC50 (JAK3) | SMILES |
| --- | --- | --- | --- |
| 170 nM | 1600 nM | 7200 nM | C[C@@H](Nc1cc(C(=O)N2CCC(NC(=O)C3CC3)CC2)nc(-c2cnn3ccsc23)n1)C1CC1 [Example 46, N-(1-{[6-{[(1R)-1-Cyclopropylethyl]amino}-2-(pyrazolo[5,1-b][1,3]thiazol-7-yl)pyrimidin-4-yl]carbonyl}piperidin-4-yl)cyclopropanecarboxamide] |
| 150 nM | > 10000 nM | > 10000 nM | CC(C)(CO)Nc1cc(C(=O)N2CCC(NC(=O)C3CC3)CC2)nc(-c2cnn3ccsc23)n1 [Example 48, N-[1-({6-[(1-Hydroxy-2-methylpropan-2-yl)amino]-2-(pyrazolo[5,1-b][1,3]thiazol-7-yl)pyrimidin-4-yl}carbonyl)piperidin-4-yl]cyclopropanecarboxamide] |
| 150 nM | 2000 nM | 2500 nM | C[C@H](Nc1cc(C(=O)N2CCC(Nc3nccs3)CC2)nc(-c2cnn3ccsc23)n1)C1CC1 [Example 50, [6-{[(1S)-1-Cyclopropylethyl]amino}-2-(pyrazolo[5,1-b][1,3]thiazol-7-yl)pyrimidin-4-yl][4-(1,3-thiazol-2-ylamino)piperidin-1-yl]methanone] |
| 180 nM | 9300 nM | > 10000 nM | COc1ccc([C@@H](C)Nc2cc(C(=O)N3CCC(NC(=O)C4CC4)CC3)nc(-c3cnn4ccsc34)n2)cc1 [Example 52, N-(1-{[6-{[(1R)-1-(4-Methoxyphenyl)ethyl]amino}-2-(pyrazolo[5,1-b][1,3]thiazol-7-yl)pyrimidin-4-yl]carbonyl}piperidin-4-yl)cyclopropanecarboxamide] |
| 140 nM | > 10000 nM | > 10000 nM | CC(C)(C)[C@@H](CO)Nc1cc(C(=O)N2CCC(NC(=O)C3CC3)CC2)nc(-c2cnn3ccsc23)n1 [Example 55, N-(1-{[6-{[(2S)-1-Hydroxy-3,3-dimethylbutan-2-yl]amino}-2-(pyrazolo[5,1-b][1,3]thiazol-7-yl)pyrimidin-4-yl]carbonyl}piperidin-4-yl)cyclopropanecarboxamide] |
| 940 nM | 7300 nM | > 10000 nM | COc1ccc([C@@H](C)Nc2cc(C(=O)N3CCC(O)CC3)nc(-c3cnn4ccsc34)n2)cc1 [Example 56, (4-Hydroxypiperidin-1-yl) [6-{[(1R)-1-(4-methoxyphenyl)ethyl]amino}-2-(pyrazolo[5,1-b][1,3]thiazol-7-yl)pyrimidin-4-yl]methanone] |
| 140 nM | 3900 nM | 5600 nM | COC(=O)NC1CCN(C(=O)c2cc(NC(C)(C)C)nc(-c3cnn4ccsc34)n2)CC1 [Example 59, Methyl (1-{[6-(tert-butylamino)-2-(pyrazolo[5,1-b][1,3]thiazol-7-yl)pyrimidin-4-yl]carbonyl}piperidin-4-yl)carbamate] |
| 72 nM | 5400 nM | 6100 nM | CC(C)OC(=O)NC1CCN(C(=O)c2cc(NC(C)(C)C)nc(-c3cnn4ccsc34)n2)CC1 [Example 60, Propan-2-yl (1-{[6-(tert-butylamino)-2-(pyrazolo[5,1-b][1,3]thiazol-7-yl)pyrimidin-4-yl]carbonyl}piperidin-4-yl)carbamate] |
| 540 nM | > 10000 nM | 9400 nM | COC(=O)NC1CCN(C(=O)c2cc(NC(C)(C)CO)nc(-c3cnn4ccsc34)n2)CC1 [Example 61, Methyl [1-({6-[(l-hydroxy-2-methylpropan-2-yl)amino]-2-(pyrazolo[5,1-b][1, 3]thiazol-7-yl)pyrimidin-4-yl}carbonyl)piperidin-4-yl]carbamate] |
| 260 nM | 3100 nM | > 10000 nM | COC(=O)NC1CCN(C(=O)c2cc(OC(C)C(C)(C)C)nc(-c3cnn4ccsc34)n2)CC1 (stereo not drawn) [Example 64, Methyl [1-({6-[(3,3-dimethylbutan-2-yl)oxy]-2-(pyrazolo[5,1-b][1,3]thiazol-7-yl)pyrimidin-4-yl}carbonyl)piperidin-4-yl]carbamate] |
| 110 nM | 620 nM | 2400 nM | C[C@H](Nc1cc(C(=O)N2CCC(NS(C)(=O)=O)CC2)nc(-c2cnn3ccsc23)n1)C1CC1 [Example 66, N-(1-{[6-{[(1S)-1-Cyclopropylethyl]amino}-2-(pyrazolo[5,1-b][1,3]thiazol-7-yl)pyrimidin-4-yl]carbonyl}piperidin-4-yl)methanesulfonamide] |
| 25 nM | 680 nM | 1900 nM | C[C@H](Nc1cc(C(=O)N2CCC(NS(=O)(=O)C3CC3)CC2)nc(-c2cnn3ccsc23)n1)C1CC1 [Example 67, N-(1-{[6-{[(1S)-1-Cyclopropylethyl]amino}-2-(pyrazolo[5,1-b][1,3]thiazol-7-yl)pyrimidin-4-yl]carbonyl}piperidin-4-yl)cyclopropanesulfonamide] |
| 73 nM | 790 nM | 2100 nM | CCS(=O)(=O)NC1CCN(C(=O)c2cc(N[C@@H](C)C3CC3)nc(-c3cnn4ccsc34)n2)CC1 [Example 68, N-(1-{[6-{[(1S)-1-Cyclopropylethyl]amino}-2-(pyrazolo[5,1-b][1,3]thiazol-7-yl)pyrimidin-4-yl]carbonyl}piperidin-4-yl)ethanesulfonamide] |
| 810 nM | 3500 nM | 5700 nM | CC(C)C(=O)NC1CCN(C(=O)c2cc(NC(C)(C)C)nc(-c3cnn4ccsc34)n2)CC1 [Example 69, N-(1-{[6-(tert-Butylamino)-2-(pyrazolo[5,1-b][1,3]thiazol-7-yl)pyrimidin-4-yl]carbonyl}piperidin-4-yl)-2-methylpropanamide] |
| 200 nM | 3700 nM | 4000 nM | CCOC(=O)NC1CCN(C(=O)c2cc(NC(C)(C)C)nc(-c3cnn4ccsc34)n2)CC1 [Example 71, Ethyl (1-{[6-(tert-butylamino)-2-(pyrazolo[5,1-b][1,3]thiazol-7-yl)pyrimidin-4-yl]carbonyl}piperidin-4-yl)carbamate] |
| 310 nM | 6100 nM | 5900 nM | CC(C)(C)Nc1cc(C(=O)N2CCC(Nc3ccccn3)CC2)nc(-c2cnn3ccsc23)n1 [Example 72, [6-(tert-Butylamino)-2-(pyrazolo[5,1-b][1,3]thiazol-7-yl)pyrimidin-4-yl][4-(pyridin-2-ylamino)piperidin-1-yl]methanone] |
| 150 nM | 930 nM | 4800 nM | CC(C)(C)Nc1cc(C(=O)N2CCC(Nc3nccs3)CC2)nc(-c2cnn3ccsc23)n1 [Example 75, [6-(tert-Butylamino)-2-(pyrazolo[5,1-b][1,3]thiazol-7-yl)pyrimidin-4-yl][4-(1,3-thiazol-2-ylamino)piperidin-1-yl]methanone] |
